According to patent publication US8197794B2, “Core 2 GlcNAc-T inhibitors” (MS Therapeutics Limited, priority 2003, dated 2012):
Like-named read-outs stand apart in the source and are kept apart here.

What was measured:
Core 2 GlcNAc-T [1] = biological target: T1, Core 2 GlcNAc-T (Homo sapiens, UniProt Q02742); assay: Cell based assay of core 2 GlcNAc-T activity in human leukocytes (U937 cells)
T1 sequence (Q02742 1-428): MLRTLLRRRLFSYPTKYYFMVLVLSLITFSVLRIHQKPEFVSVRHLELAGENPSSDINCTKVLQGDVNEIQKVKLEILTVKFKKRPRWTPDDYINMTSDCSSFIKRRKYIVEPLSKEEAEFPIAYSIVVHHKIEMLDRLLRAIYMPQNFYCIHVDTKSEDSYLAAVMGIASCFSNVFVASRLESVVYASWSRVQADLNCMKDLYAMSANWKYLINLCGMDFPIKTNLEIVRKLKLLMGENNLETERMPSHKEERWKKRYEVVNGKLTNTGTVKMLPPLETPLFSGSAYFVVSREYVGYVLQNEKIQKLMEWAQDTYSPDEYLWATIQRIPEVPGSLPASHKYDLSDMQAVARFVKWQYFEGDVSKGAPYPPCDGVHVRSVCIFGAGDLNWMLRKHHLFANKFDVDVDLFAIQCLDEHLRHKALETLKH
Procedure: (§1) FIG. 17a and FIG. 17b are graphs illustrating the effect of purified trigoneoside IVa, glycoside F, and shatavarin IV on Core 2 GlcNAc-T activity in cell free (FIG. 17a) and cell based (FIG. 17b) assays. In cell free assays heart lysate from BB rats were incubated in the presence, and absence of 20 ng/ml of each compound. After 1 h incubation at 37° C., the activity of core 2 GlcNAc-T was measured, and expressed as pmoles/h/mg protein. The results are the mean of 3-5 separate experiments. In cell based assays human leukocytes (U937 cells) were exposed to 8 pg/ml human recombinant TNF-alpha in the presence and absence of 20 ng/ml of the test compound. After 24 h incubation, the activity of core 2 GlcNAc-T was measured, and expressed as pmoles/h/mg protein.
(§2) For Glucose induction of Core 2 GlcNAc-T leukocytes (U937 cells) are exposed to normal glucose (5.8 mM) or high glucose (15 mM) for 24 hours at 37° C. After incubation, the cells maybe lysed and frozen at −20° C. until used for the measurement of core 2 GlcNAc-T. or used immediately. For TNF-α induction of core 2 GlcNAc-T, Human leukocytes(U937 cells) are exposed to human recombinant TNF-alpha (8 pg/ml) in the presence and absence of test compounds After 24 h incubation, the activity of core 2 GlcNAc-T was measured, and expressed as pmoles/h/mg protein. For cell free assay of core 2 GlcNAc-T heart lysates from either from TNF-alpha over expressing transgenic mice (female, B6.5JL-Tg (TNF) supplied by Taconic-M+B, Bomholtveg 10, 8680 Ry, Denmark) or from BB rats (Festing 1979) are exposed to various concentrations of test compound for 1 h at 37° C. Activity of core 2
(§3) To measure core 2 GlcNAc-T activity, leukocytes were washed in PES, frozen and lysed in 0.9% Triton X-100 at 0° C. The activity of core 2 GlcNAc-T was measured as described previously (Chibber, Diabetes 49, 1724-1730 (2000)). Briefly, the reaction was performed in a reaction mixture containing 50 mM 2(N-morpholino)ethanesulfonic acid (MES, Sigma, Dorset, UK), pH 7.0, 1 mM UDP-6 [′H]-N-acetylglucosamine (16,000 dpm/nmol, NEN Life Science Products, Hounslow, UK), 0.1 M GlcNAc (Sigma, Dorset, Okla.), 1 mM Galβ1-3GalNAcα-p-nitrophenol (Sigma, Dorset, UK) as substrate, and […] of cell lysate (100-200 μg protein) for a final volume of […]. After incubating the mixture for 1 hour at 37° C., the reaction was terminated with 1 ml of ice-cold distilled water and processed on a C18 Sep-Pak column (Waters-Millipore, Watford, UK). After washing the column with 20 ml of distilled water, the product was eluted with 5 ml of methanol. The radioactivity of the samples was counted in a liquid scintillation β-counter (LKB-Wallac, London, UK). Endogenous activity of core 2 GlcNAc-T was measured in the absence of the added acceptor. The specific activity was expressed as pmoles/h/mg of cell protein. In each case, the protein concentration was determined with BioRad protein assay (BioRad, Hertfordshire, UK).

core 2 GlcNAc-T [2] = biological target: T2, core 2 GlcNAc-T (Mus musculus, UniProt Q09324); assay: Cell free assay of core 2 GlcNAc-T on heart lysates of TNF-α mice; format: biochemical
T2 construct: heart lysates from either from TNF-alpha over expressing transgenic mice; tissue Taconic-M+B (mice) B6.5JL-Tg (TNF); host or cells: heart lysate of TNF-alpha over-expressing transgenic mice
T2 sequence (Q09324 1-428): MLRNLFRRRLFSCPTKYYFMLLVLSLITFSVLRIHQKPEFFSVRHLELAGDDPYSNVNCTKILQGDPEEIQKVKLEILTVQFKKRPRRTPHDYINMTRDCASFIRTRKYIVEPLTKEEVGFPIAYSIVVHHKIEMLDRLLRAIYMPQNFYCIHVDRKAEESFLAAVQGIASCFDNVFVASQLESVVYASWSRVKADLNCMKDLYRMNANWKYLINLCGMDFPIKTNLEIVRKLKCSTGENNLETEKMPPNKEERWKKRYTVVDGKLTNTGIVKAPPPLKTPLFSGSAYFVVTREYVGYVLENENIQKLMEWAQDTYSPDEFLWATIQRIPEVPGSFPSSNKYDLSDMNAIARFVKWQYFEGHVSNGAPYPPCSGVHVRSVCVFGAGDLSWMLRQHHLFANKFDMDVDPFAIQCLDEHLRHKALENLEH
Procedure: as §2
(§4) GlcNAc-T is measured, and expressed as pmoles/h/mg protein.
as §3

core 2 GlcNAc-T [3] = biological target: core 2 GlcNAc-T (Rattus norvegicus, UniProt Q64165); assay: Cell free assay of core 2 GlcNAc-T on heart lysates of BB rats; format: biochemical
core 2 GlcNAc-T (Rattus norvegicus, UniProt Q64165), sequence (Q64165 entry or part of it): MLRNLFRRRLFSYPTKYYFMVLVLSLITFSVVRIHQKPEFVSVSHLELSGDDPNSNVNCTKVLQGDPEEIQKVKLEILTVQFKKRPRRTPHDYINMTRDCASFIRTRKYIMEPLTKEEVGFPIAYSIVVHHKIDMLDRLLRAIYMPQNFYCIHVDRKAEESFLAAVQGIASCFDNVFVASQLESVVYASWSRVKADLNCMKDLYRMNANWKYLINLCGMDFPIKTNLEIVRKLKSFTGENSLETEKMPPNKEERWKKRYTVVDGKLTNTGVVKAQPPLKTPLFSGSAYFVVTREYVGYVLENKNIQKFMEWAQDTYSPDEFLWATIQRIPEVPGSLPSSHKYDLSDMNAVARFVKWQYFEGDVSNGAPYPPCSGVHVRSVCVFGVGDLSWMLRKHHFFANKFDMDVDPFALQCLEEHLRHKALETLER
Procedure: as §1
For Glucose induction of Core 2 GlcNAc-T leukocytes (U937 cells) are exposed to normal glucose (5.8 mM) or high glucose (15 mM) for 24 hours at 37° C. After incubation, the cells maybe lysed and frozen at −20° C. until used for the measurement of core 2 GlcNAc-T. or used immediately. For TNF-α induction of core 2 GlcNAc-T, Human leukocytes(U937 cells) are exposed to human recombinant TNF-alpha (8 pg/ml) in the presence and absence of test compounds After 24 h incubation, the activity of core 2 GlcNAc-T was measured, and expressed as pmoles/h/mg protein. […]
as §4
To measure core 2 GlcNAc-T activity, leukocytes were washed in PES, frozen and lysed in 0.9% Triton X-100 at 0° C. The activity of core 2 GlcNAc-T was measured as described previously (Chibber, Diabetes 49, 1724-1730 (2000)). […] The radioactivity of the samples was counted in a liquid scintillation β-counter (LKB-Wallac, London, UK). Endogenous activity of core 2 GlcNAc-T was measured in the absence of the added acceptor. The specific activity was expressed as pmoles/h/mg of cell protein. In each case, the protein concentration was determined with BioRad protein assay (BioRad, Hertfordshire, UK).

Core 2 GlcNAc-T [4] = biological target: T1, Core 2 GlcNAc-T; assay: Core 2 GlcNAc-T inhibition, assay system not given; format: biochemical
Procedure: as §3

[5] = read-out: Approximate Ic50 values, Cell based assay
[6] = heart lysates of TNF-α mice, read-out: Approximate Ic50 values, Cell free assay

Compound | IC50 (Core 2 GlcNAc-T [1]; [5]) | IC50 (core 2 GlcNAc-T [2]; [6]) | other results
C[C@@H](CC[C@@]1(O)O[C@H]2C[C@H]3[C@@H]4CC[C@@H]5C[C@@H](O[C@@H]6O[C@H](CO)[C@@H](O[C@@H]7O[C@H](CO)[C@@H](O)[C@H](O)[C@H]7O)[C@H](O)[C@H]6O[C@@H]6O[C@@H](C)[C@H](O)[C@@H](O)[C@H]6O)CC[C@]5(C)[C@H]4CC[C@]3(C)[C@H]2[C@@H]1C)CO[C@@H]1O[C@H](CO)[C@@H](O)[C@H](O)[C@H]1O [Shatavarin I, (3β,5β,22α,25S)-26-(β-D-glucopyranosyloxy)-22-hydroxyfurostan-3-yl O-6-deoxy-α-L-mannopyranosyl-(1-42)-O-[β-D-glucopyranosyl-(1→4)]-β-D-glucopyranoside] | 0.75 nM | 1 nM | –
CC1=C(CC[C@@H](C)CO[C@@H]2O[C@H](CO)[C@@H](O)[C@H](O)[C@H]2O)O[C@H]2C[C@H]3[C@@H]4CC=C5C[C@@H](O[C@@H]6O[C@H](CO)[C@@H](O[C@@H]7O[C@@H](C)[C@H](O)[C@@H](O)[C@H]7O)[C@H](O)[C@H]6O[C@@H]6O[C@@H](C)[C@H](O)[C@@H](O)[C@H]6O)CC[C@]5(C)[C@H]4CC[C@]3(C)[C@@H]12 [Pseudoprotodioscin, (3β,22α,25R)-26-(β-D-glucopyranosyloxy)-furosta-5,20(22)-dien-3-yl O-6-deoxy-α-L-mannopyranosyl (1→2)-046-deoxy-α-L-mannopyranosyl-(1→4)]-[3-D-Glucopyranoside] | 50 nM | 35 nM | –
C[C@@H](CCC1(O)O[C@H]2C[C@H]3[C@@H]4CC=C5C[C@@H](O[C@@H]6O[C@H](CO)[C@@H](O[C@@H]7O[C@H](CO)[C@@H](O)[C@H](O)[C@H]7O)[C@H](O)[C@H]6O[C@@H]6O[C@@H](C)[C@H](O)[C@@H](O)[C@H]6O)CC[C@]5(C)[C@H]4CC[C@]3(C)[C@H]2[C@@H]1C)CO[C@@H]1O[C@H](CO)[C@@H](O)[C@H](O)[C@H]1O (stereo partly drawn) [Trigoneoside IVa, (3β,25 S)-26-(β-D-glucopyranosyloxy)-22-hydroxyfurost-5-en-3-yl O-6-deoxy-α-L-mannopyranosyl-(1→2)-O-[β-D-glucopyranosyl-(1→4)]-β-D-glucopyranoside] | 75 nM | 0.9 nM | IC50 (core 2 GlcNAc-T [2]; in cell free systems, read-out: approximate IC50): 0.25 to 0.9 nM
CC(CCC1(O)OC2CC3C4CC=C5CC(OC6OC(CO)C(OC7OC(CO)C(O)C(O)C7O)C(O)C6OC6OC(C)C(O)C(O)C6O)CCC5(C)C4CCC3(C)C2C1C)COC1OC(CO)C(O)C(O)C1O [Glycoside F, (3β,25R)-26-(β-D-glucopyranosyloxy)-22-hydroxyfurost-5-en-3-yl O-6-deoxy-α-L-mannopyranosyl-(1→2)-O-[β-D-glucopyranosyl-(1→4)]-β-D-glucopyranoside] | – | – | inhibition at 0.022 µM (core 2 GlcNAc-T [3]; at 22 nM in BB rat heart lysate): 100%
C[C@@H]1CC[C@@]2(OC1)O[C@H]1C[C@H]3[C@@H]4CC=C5C[C@@H](O[C@@H]6O[C@H](CO)[C@@H](O[C@@H]7O[C@@H](C)[C@H](O)[C@@H](O)[C@H]7O)[C@H](O)[C@H]6O[C@@H]6O[C@@H](C)[C@H](O)[C@@H](O)[C@H]6O)CC[C@]5(C)[C@H]4CC[C@]3(C)[C@H]1[C@@H]2C [Dioscin, (3(3,25R)-spirost-5-en-3-yl O-6-deoxy-α-L-mannopyranosyl-(1→2)-046-deoxy-α-L-mannopyranosyl-(1→4)]-β-D-glucopyranoside] | – | – | IC50 (Core 2 GlcNAc-T [1]): 75 nM; IC50 (core 2 GlcNAc-T [2]): 40 nM
C[C@@H](CC[C@@]1(O)O[C@H]2C[C@H]3[C@@H]4CC=C5C[C@@H](O[C@@H]6O[C@H](CO)[C@@H](O[C@@H]7O[C@@H](C)[C@H](O)[C@@H](O)[C@H]7O)[C@H](O)[C@H]6O[C@@H]6O[C@@H](C)[C@H](O)[C@@H](O)[C@H]6O)CC[C@]5(C)[C@H]4CC[C@]3(C)[C@H]2[C@@H]1C)CO[C@@H]1O[C@H](CO)[C@@H](O)[C@H](O)[C@H]1O [Trigonelloside C] | – | – | inhibition of Core 2 GlcNAc-T (Core 2 GlcNAc-T [4]; at 2.5 nM, preparation 98.2% pure): 69%
C[C@H](CC[C@@]1(O)O[C@H]2C[C@H]3[C@@H]4CC=C5C[C@@H](O[C@@H]6O[C@H](CO)[C@@H](O[C@@H]7O[C@@H](C)[C@H](O)[C@@H](O)[C@H]7O)[C@H](O)[C@H]6O[C@@H]6O[C@@H](C)[C@H](O)[C@@H](O)[C@H]6O)CC[C@]5(C)[C@H]4CC[C@]3(C)[C@H]2[C@@H]1C)CO[C@@H]1O[C@H](CO)[C@@H](O)[C@H](O)[C@H]1O [Protodioscin] | – | – | activity (Core 2 GlcNAc-T [4]; sample prepared from Tribulus terrestris, 97% pure, concentrations of 50 μM): no activity; IC50 (core 2 GlcNAc-T [3]; heart lysates of BB rats, read-out: Approximate Ic50 values, Cell free assay): 20 nM; IC50 (core 2 GlcNAc-T [3]; system not restated, values as in Table 9 cell free assay, read-out: IC50): ~20 nM; inhibition of Core 2 GlcNAc-T compared to controls (Core 2 GlcNAc-T [1]; 20 ng/ml, TNF-α treated Human leukocytes (U937 cells)): approximately 98.5%
C[C@H](CC[C@@]1(O)O[C@H]2C[C@H]3[C@@H]4CC=C5C[C@@H](O[C@@H]6O[C@H](CO)[C@@H](O)[C@H](O[C@@H]7O[C@H](CO)[C@@H](O)[C@H](O)[C@H]7O)[C@H]6O[C@@H]6O[C@@H](C)[C@H](O)[C@@H](O)[C@H]6O)CC[C@]5(C)[C@H]4CC[C@]3(C)[C@H]2[C@@H]1C)CO[C@@H]1O[C@H](CO)[C@@H](O)[C@H](O)[C@H]1O [Protogracillin] | 0.25 nM | 3 nM | –
C[C@@H]1CC[C@@]2(OC1)O[C@H]1C[C@H]3[C@@H]4CC=C5C[C@@H](O[C@@H]6O[C@H](CO)[C@@H](O)[C@H](O[C@@H]7O[C@H](CO)[C@@H](O)[C@H](O)[C@H]7O)[C@H]6O[C@@H]6O[C@@H](C)[C@H](O)[C@@H](O)[C@H]6O)CC[C@]5(C)[C@H]4CC[C@]3(C)[C@H]1[C@@H]2C [Gracillin, (3β,25R)-spirost-5-en-3-yl O-6-deoxy-α-L-mannopyranosyl-(1→2)-O-[β-D-glucopyranosyl-(1→3)]-β-D-glucopyranoside] | 2.5 nM | 4.5 nM | –
